Holding throughout (test): KinomeScan profiling
What all share (format): binding
Common to all, as to conditions: read-out: % control

One experiment deals with T1, MLCK (Homo sapiens, UniProt Q32MK0).
T1 sequence (Q32MK0 1-819): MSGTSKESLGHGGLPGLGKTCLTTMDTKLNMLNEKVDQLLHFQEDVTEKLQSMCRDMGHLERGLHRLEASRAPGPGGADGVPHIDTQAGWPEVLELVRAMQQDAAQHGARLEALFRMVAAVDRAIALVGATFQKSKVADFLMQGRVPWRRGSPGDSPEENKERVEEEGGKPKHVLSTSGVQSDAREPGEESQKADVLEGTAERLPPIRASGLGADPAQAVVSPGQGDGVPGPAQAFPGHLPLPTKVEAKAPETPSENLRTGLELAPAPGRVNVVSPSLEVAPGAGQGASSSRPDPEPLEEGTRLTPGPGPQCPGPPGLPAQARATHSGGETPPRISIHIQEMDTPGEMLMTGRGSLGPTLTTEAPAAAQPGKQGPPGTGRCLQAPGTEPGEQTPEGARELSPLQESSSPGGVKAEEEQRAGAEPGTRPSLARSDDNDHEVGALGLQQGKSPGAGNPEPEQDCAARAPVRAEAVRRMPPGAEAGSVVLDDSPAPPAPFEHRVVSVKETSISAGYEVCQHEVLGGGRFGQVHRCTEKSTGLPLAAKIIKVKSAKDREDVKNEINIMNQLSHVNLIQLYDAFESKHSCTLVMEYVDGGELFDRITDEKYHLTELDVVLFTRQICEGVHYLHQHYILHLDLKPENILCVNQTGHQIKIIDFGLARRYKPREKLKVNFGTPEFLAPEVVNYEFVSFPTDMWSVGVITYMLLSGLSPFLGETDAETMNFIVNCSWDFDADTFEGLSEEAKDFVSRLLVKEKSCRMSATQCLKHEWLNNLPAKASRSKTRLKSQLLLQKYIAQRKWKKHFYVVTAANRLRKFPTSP
The method in brief:
(§1)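 At 1 μM in DMSO, compounds are run through a broad 468-member kinase panel. The luminescent read-out is normalised so that vehicle gives 100% and a positive control gives 0%; any kinase falling below 35% is treated as a target.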

For the next experiment, the target named is T2, TTK (Homo sapiens, UniProt P33981).
T2 sequence (P33981 1-857): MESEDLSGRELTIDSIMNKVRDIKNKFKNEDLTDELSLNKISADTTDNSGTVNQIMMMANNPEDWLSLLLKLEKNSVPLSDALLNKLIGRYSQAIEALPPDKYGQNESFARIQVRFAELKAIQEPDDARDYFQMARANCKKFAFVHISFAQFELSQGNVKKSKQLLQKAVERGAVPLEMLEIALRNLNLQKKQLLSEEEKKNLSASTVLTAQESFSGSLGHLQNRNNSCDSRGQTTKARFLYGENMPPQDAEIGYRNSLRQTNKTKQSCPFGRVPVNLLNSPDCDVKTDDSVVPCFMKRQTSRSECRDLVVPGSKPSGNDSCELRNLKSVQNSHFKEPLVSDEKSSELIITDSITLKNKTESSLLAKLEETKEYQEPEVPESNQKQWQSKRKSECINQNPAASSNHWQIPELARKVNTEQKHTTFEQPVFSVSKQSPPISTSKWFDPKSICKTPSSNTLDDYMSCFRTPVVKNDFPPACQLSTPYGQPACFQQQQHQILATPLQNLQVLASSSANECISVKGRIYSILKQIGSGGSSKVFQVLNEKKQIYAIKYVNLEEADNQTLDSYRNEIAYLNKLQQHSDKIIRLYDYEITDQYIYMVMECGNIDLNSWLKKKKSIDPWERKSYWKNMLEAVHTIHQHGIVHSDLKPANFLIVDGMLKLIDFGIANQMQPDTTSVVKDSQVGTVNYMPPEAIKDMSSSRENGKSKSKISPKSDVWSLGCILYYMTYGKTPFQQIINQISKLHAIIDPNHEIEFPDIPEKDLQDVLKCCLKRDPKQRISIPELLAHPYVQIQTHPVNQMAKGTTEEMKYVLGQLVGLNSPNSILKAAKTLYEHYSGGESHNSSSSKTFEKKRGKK
An outline of the steps: as §1

The next experiment concerns the target T3, FLT3(N841I) (Homo sapiens, UniProt P36888, N841I).
T3 sequence (P36888 27-993 N841I): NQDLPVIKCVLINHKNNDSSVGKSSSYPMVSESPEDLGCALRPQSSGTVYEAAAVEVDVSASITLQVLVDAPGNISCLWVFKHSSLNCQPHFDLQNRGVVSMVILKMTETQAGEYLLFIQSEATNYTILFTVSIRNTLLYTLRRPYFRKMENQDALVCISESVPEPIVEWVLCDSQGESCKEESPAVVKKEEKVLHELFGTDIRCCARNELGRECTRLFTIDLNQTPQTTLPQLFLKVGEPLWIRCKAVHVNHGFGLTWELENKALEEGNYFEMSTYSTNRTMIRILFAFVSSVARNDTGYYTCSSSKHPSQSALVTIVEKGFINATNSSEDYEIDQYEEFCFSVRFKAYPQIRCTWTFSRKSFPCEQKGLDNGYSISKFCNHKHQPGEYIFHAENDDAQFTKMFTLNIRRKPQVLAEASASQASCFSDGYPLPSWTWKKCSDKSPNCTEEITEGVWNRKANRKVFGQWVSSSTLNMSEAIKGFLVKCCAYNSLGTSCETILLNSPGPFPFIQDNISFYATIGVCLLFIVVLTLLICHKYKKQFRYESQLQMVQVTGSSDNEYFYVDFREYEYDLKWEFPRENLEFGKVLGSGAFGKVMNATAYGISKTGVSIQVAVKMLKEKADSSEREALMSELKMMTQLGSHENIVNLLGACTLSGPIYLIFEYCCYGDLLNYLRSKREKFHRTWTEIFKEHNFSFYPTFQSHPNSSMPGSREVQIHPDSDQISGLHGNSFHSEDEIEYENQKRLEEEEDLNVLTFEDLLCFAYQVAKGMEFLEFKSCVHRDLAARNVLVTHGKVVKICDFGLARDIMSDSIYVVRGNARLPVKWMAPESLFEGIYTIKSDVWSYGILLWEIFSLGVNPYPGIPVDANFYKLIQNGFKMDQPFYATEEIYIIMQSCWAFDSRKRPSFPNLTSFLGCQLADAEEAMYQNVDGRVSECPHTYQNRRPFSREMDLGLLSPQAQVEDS
An outline of the steps: as §1

The target in another experiment is EGFR (Homo sapiens, UniProt P00533). The method in brief: as §1
Chain of EGFR (P00533 25-1210): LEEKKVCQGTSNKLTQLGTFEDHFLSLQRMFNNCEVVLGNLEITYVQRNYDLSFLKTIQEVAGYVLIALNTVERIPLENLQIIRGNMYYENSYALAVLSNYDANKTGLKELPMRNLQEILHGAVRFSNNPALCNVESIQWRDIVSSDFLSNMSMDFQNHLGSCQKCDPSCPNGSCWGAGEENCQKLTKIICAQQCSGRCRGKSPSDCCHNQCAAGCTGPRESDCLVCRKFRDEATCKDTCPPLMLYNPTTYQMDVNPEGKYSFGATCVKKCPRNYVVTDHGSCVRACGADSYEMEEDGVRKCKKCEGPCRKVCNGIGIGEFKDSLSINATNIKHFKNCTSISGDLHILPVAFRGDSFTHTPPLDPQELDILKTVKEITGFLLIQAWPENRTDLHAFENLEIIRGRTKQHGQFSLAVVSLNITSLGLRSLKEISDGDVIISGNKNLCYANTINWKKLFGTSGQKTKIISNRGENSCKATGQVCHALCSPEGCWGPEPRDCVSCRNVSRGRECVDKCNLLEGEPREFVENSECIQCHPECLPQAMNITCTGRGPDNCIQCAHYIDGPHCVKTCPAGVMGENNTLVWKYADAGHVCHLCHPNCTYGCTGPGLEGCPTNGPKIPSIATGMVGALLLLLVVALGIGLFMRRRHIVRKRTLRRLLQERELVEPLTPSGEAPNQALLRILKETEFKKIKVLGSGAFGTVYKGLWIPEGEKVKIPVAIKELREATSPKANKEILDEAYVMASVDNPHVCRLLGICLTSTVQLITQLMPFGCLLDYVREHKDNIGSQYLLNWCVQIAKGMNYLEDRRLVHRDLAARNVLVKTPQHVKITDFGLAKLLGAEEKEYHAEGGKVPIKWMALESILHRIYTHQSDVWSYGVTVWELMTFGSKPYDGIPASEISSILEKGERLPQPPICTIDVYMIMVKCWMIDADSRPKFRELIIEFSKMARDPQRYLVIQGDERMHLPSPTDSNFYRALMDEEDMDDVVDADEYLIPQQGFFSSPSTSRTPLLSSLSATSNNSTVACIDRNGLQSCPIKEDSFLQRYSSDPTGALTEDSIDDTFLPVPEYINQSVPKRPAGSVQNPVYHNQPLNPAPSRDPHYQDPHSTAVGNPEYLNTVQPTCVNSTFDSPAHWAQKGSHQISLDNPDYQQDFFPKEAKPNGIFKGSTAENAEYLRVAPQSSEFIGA

Consider `CNc1c(-c2ccc(C(=O)N3CCC(N4CCOCC4)CC3)cc2)cnc2[nH]cc(Cl)c12` [Compound 96, (4-(3-chloro-4-(methylamino)-1H-pyrrolo[2,3-b]pyridin-5-yl)phenyl)(4-morpholinopiperidin-1-yl)methanone], for which the remaining binding at 1 µM stood at 5% at MLCK, 3.6% at TTK, 14% at FLT3(N841I) and 100% on EGFR.
With `O=C(c1ccc(-c2cnc3[nH]cc(Cl)c3c2NC2CCCC2)cc1)N1CCC(N2CCOCC2)CC1` [Compound 101, (4-(3-chloro-4-(cyclopentylamino)-1H-pyrrolo[2,3-b]pyridin-5-yl)phenyl)(4-morpholinopiperidin-1-yl)methanone], the remaining binding at 1 µM on MLCK is 100%; on TTK, 54%; at FLT3(N841I), 2.6%; at EGFR it was 97%.
Taken in the same sequence, the figures for `CNc1c(-c2cnn([C@H]3CCN(C(C)=O)C[C@@H]3F)c2)cnc2[nH]cc(Cl)c12` [Compound 77, 1-((3S,4S)-4-(4-(3-chloro-4-(methylamino)-1H-pyrrolo[2,3-b]pyridin-5-yl)-1H-pyrazol-1-yl)-3-fluoropiperidin-1-yl)ethan-1-one] were 13%, 34%, 1% and 95%.

These data come from US12275731B2, “Azaindole inhibitors of wild-type and mutant forms of LRRK2” (DANA-FARBER CANCER INSTITUTE, INC., priority 2018, dated 2025).
